Test results: patent publication US11306091B2, “Process for producing fluorinated compounds using alcohol solvent having unsaturated hydrocarbon” (FUTURECHEM CO., LTD, priority 2019, dated 2022)

Experiment: Comparison of solubility of precursor compounds according to the kind of reaction solvents (observation with the naked eye)
Type: physicochemical
Settings: for Solubility in 2-methyl-3-butene-2-ol (the present invention), 60° C. / Solubility in 2-methyl-3-butene-2-ol (the present invention), room temp: 1.0 ml 2-methyl-3-butene-2-ol; for Solubility in 2-methyl-3-butene-2-ol (the present invention), 60° C. / Solubility in 2-methyl-3-butyne-2-ol (the present invention), 60° C. / Solubility in t-amyl alcohol (KR 10-0789847), 60° C.: shaking 1 minute at 60° C.; for Solubility in 2-methyl-3-butene-2-ol (the present invention), 60° C. / Solubility in 2-methyl-3-butene-2-ol (the present invention), room temp / Solubility in 2-methyl-3-butyne-2-ol (the present invention), 60° C. / Solubility in 2-methyl-3-butyne-2-ol (the present invention), room temp / Solubility in t-amyl alcohol (KR 10-0789847), 60° C. / Solubility in t-amyl alcohol (KR 10-0789847), room temp: naked eye; for Solubility in 2-methyl-3-butene-2-ol (the present invention), room temp / Solubility in 2-methyl-3-butyne-2-ol (the present invention), room temp / Solubility in t-amyl alcohol (KR 10-0789847), room temp: shaking 1 minute at room temperature; for Solubility in 2-methyl-3-butyne-2-ol (the present invention), 60° C. / Solubility in 2-methyl-3-butyne-2-ol (the present invention), room temp: 1.0 ml 2-methyl-3-butyne-2-ol; for Solubility in t-amyl alcohol (KR 10-0789847), 60° C. / Solubility in t-amyl alcohol (KR 10-0789847), room temp: 1.0 ml t-amyl alcohol; for State of solution dissolved at 60° C. after cooling to room temperature, t-amyl alcohol: cooled to room temperature after the lapse of time; for State of solution dissolved at 60° C. after cooling to room temperature, 2-methyl-3-butene-2-ol / 2-methyl-3-butyne-2-ol: solvents of the present invention, dissolved by heating to 60° C., cooled to room temperature
Description: Experiments for comparing the solubility in the 2-methyl-3-butene-2-ol solvent and 2-methyl-3-butyne-2-ol solvent according to the present invention, and the t-amyl alcohol solvent of the prior art (KE 10-0789847) were performed. Each of the precursors of FP-CIT, FDG, FLT, FMISO and FC119S in solid states was put in a vial, and 1.0 ml of each solvent was added thereto, followed by shaking at room temperature and 60° C. for 1 minutes, respectively, for dissolution.

CCC(Oc1ccc2ccccc2c1)OS(C)(=O)=O (centres unmarked) [1-(naphthalene-2-yloxy)propyl methanesulfonate]
Solubility in 2-methyl-3-butene-2-ol (the present invention), 60° C.: Dissolved | Solubility in 2-methyl-3-butene-2-ol (the present invention), room temp: Dissolved

CS(=O)(=O)OCCCOc1ccc2ccccc2c1 [3-(naphthalene-2-yloxy)propyl methanesulfonate]
Solubility in 2-methyl-3-butene-2-ol (the present invention), 60° C.: Dissolved | Solubility in 2-methyl-3-butene-2-ol (the present invention), room temp: Dissolved

CN(C(=O)OC(C)(C)C)c1ccc(-c2nc3ccc(OC[C@@H](COS(=O)(=O)c4ccc([N+](=O)[O-])cc4)OC4CCCCO4)cc3s2)cn1 (stereo partly drawn) [FC119S, (2S)-3-((2-(6-((tert-butoxycarbonyl) (methyl)amino)pyridin-3-yl)benzo[d]thiazol-6-yl)oxy)-2-((tetrahydro-2H-pyran-2-yl)oxy)propyl 4-nitrobenzenesulfonate]
Solubility in 2-methyl-3-butene-2-ol (the present invention), 60° C.: Dissolved | Solubility in 2-methyl-3-butene-2-ol (the present invention), room temp: Dissolved | Solubility in 2-methyl-3-butyne-2-ol (the present invention), 60° C.: Dissolved | Solubility in 2-methyl-3-butyne-2-ol (the present invention), room temp: Dissolved | Solubility in t-amyl alcohol (KR 10-0789847), 60° C.: Insoluble | Solubility in t-amyl alcohol (KR 10-0789847), room temp: Insoluble

CC(=O)OC[C@H]1O[C@@H](OC(C)=O)[C@@H](OS(=O)(=O)C(F)(F)F)[C@@H](OC(C)=O)[C@@H]1OC(C)=O [FDG, 1,3,4,6-tetra-O-acetyl-2-O-trifluoro-methanesulfonyl-beta-D-mannopyranose]
Solubility in 2-methyl-3-butene-2-ol (the present invention), 60° C.: Dissolved | Solubility in 2-methyl-3-butene-2-ol (the present invention), room temp: Dissolved | Solubility in 2-methyl-3-butyne-2-ol (the present invention), 60° C.: Dissolved | Solubility in 2-methyl-3-butyne-2-ol (the present invention), room temp: Dissolved | Solubility in t-amyl alcohol (KR 10-0789847), 60° C.: Dissolved | Solubility in t-amyl alcohol (KR 10-0789847), room temp: Insoluble | State of solution dissolved at 60° C. after cooling to room temperature, t-amyl alcohol: precipitated again as solids

O=[N+]([O-])c1nccn1CC(O)CF (centres unmarked) [FMISO]
Solubility in 2-methyl-3-butene-2-ol (the present invention), 60° C.: Dissolved | Solubility in 2-methyl-3-butene-2-ol (the present invention), room temp: Insoluble | Solubility in 2-methyl-3-butyne-2-ol (the present invention), 60° C.: Dissolved | Solubility in 2-methyl-3-butyne-2-ol (the present invention), room temp: Dissolved | Solubility in t-amyl alcohol (KR 10-0789847), 60° C.: Dissolved | Solubility in t-amyl alcohol (KR 10-0789847), room temp: Insoluble | State of solution dissolved at 60° C. after cooling to room temperature, 2-methyl-3-butene-2-ol / 2-methyl-3-butyne-2-ol: not precipitated as solids | State of solution dissolved at 60° C. after cooling to room temperature, t-amyl alcohol: precipitated again as solids

Cc1cn([C@H]2C[C@H](OS(=O)(=O)c3ccc([N+](=O)[O-])cc3)[C@@H](COC(c3ccccc3)(c3ccccc3)c3ccccc3)O2)c(=O)n(C(=O)OC(C)(C)C)c1=O [FLT, 3-N-Boc-5′-O-trityl-3′-O-nosyl-thymidine]
Solubility in 2-methyl-3-butene-2-ol (the present invention), 60° C.: Dissolved | Solubility in 2-methyl-3-butene-2-ol (the present invention), room temp: Dissolved | Solubility in 2-methyl-3-butyne-2-ol (the present invention), 60° C.: Dissolved | Solubility in 2-methyl-3-butyne-2-ol (the present invention), room temp: Insoluble | Solubility in t-amyl alcohol (KR 10-0789847), 60° C.: Insoluble | Solubility in t-amyl alcohol (KR 10-0789847), room temp: Insoluble | State of solution dissolved at 60° C. after cooling to room temperature, 2-methyl-3-butene-2-ol / 2-methyl-3-butyne-2-ol: not precipitated as solids
